Drawing on patent publication US9139568B2 (Merck Patent GmbH, priority 2011, dated 2015), this text covers IC50 for eight compounds.

In one assay the target is P70S6K (Homo sapiens (Human), UniProt P23443, T412E). Put plainly: P70S6K Enzyme Assay. It is filed as biochemical. The conditions noted are these: P70S6K T412E mutant, 24 μM ATP, mobility shift (Caliper). In outline:
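Phosphorylated product and substrate peptide separated by microfluidic capillary electrophoresis (Caliper LabChip 3000), product peaks resolving before substrate.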

The target of another assay is AKT (Homo sapiens (Human), UniProt P31749). Kind of assay: AKT Enyzme Assay. It is filed as biochemical. The conditions noted are these: His-AKT (Full Length), 160 uM ATP, mobility shift (Caliper). Here is the method: A TTP Mosquito liquid handling instrument is used to place 125 nl of the appropriate concentration of inhibitor in 100% DMSO (for a dose response curve calculation) into each well of a 384-well plate.
The reaction is incubated for 90 min at 25 C, and then stopped by the addition of 70 μl of Stop buffer (100 mM HEPES pH 7.5, 0.015% Brij-35, 10 mM EDTA (Sigma, E7889)).
The plate is read on a Caliper LC 3000 in an Off-Chip mobility shift assay format, using the following parameters for a 12-sipper chip: screening pressure −2.3 psi, upstream voltage −500, and downstream voltage −3000. These conditions cause unphosphorylated substrate and phosphorylated product peptide to resolve as separate peaks allowing direct measurement of percentage of conversion of substrate to product. The percent conversion can be plotted against concentration of inhibitor to produce a sigmoidal dose response curve, from which an IC50 can be calculated.

Usually IC50 stands for the concentration needed to halve the response being measured.

The structures appear in SMILES notation.

P70S6K, sequence (P23443 1-421 T412E): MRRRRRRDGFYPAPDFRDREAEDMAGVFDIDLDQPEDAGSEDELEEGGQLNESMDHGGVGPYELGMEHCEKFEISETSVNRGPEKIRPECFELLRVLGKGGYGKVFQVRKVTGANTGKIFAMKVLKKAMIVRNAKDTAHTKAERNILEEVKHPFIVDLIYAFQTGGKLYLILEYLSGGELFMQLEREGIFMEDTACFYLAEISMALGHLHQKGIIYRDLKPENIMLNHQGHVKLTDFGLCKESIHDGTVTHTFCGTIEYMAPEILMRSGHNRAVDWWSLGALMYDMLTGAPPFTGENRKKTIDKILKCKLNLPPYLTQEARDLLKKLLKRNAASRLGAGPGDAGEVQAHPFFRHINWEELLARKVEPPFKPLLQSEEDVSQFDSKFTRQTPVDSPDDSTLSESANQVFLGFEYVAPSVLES
AKT, sequence (P31749 whole entry): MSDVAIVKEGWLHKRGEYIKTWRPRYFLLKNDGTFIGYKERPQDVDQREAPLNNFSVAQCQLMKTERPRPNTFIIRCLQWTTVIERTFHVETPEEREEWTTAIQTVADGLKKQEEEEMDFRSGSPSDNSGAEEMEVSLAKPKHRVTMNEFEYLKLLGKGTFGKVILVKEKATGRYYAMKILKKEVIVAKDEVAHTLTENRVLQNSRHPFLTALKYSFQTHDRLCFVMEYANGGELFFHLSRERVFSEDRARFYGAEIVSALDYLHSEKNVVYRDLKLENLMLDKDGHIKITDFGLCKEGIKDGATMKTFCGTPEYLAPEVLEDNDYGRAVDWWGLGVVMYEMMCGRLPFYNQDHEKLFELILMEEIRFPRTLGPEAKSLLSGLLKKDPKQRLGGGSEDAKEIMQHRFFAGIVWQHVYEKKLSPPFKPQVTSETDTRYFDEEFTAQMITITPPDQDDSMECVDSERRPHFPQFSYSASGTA

As to `CN1CCC(Nc2ccc(C(N)=O)c3ncncc23)C1` (racemic) [Example 58, 5-((1-methylpyrrolidin-3-yl)amino)quinazoline-8-carboxamide], the IC50 was 20 µM at P70S6K and over 100 µM on AKT.
Consider `NC(=O)c1ccc(N2CCC(CCc3ccccc3)C2)c2cncnc12` (racemic) [Example 64, 5-(3-phenethylpyrrolidin-1-yl)quinazoline-8-carboxamide], for which the IC50 is 0.24 µM on P70S6K and 3.1 µM at AKT.
The matching figures for `CN(CCc1ccccc1)c1ccc(C(N)=O)c2ncncc12` [Example 103, 5-[methyl(phenethyl)amino]quinazoline-8-carboxamide]: 0.22 µM and 14 µM.
Regarding `NC(=O)c1ccc(N2CCN(c3cccc(Cl)c3)CC2)c2cncnc12` [Example 96, 5-[4-(3-chloro-phenyl)-piperazin-1-yl]-quinazoline-8-carboxylic acid amide], the IC50 is 10 µM at P70S6K and over 100 µM at AKT.
The matching figures for `NC(=O)c1ccc(NCc2cccnc2)c2cncnc12` [Example 62, 5-((pyridin-3-ylmethyl)amino)quinazoline-8-carboxamide]: 1.6 µM and 70 µM.
In the case of `Cc1ccc(Cl)cc1N1CCN(c2ccc(C(N)=O)c3ncncc23)CC1` [Example 111, 5-[4-(5-chloro-2-methylphenyl)-piperazin-1-yl]-quinazoline-8-carboxylic acid amide], the IC50 at P70S6K and on AKT was over 100 µM in each case.
Consider `NC(=O)c1ccc(N(CCc2ccccc2)[C@@H]2CCCNC2)c2cncnc12` [Example 105, 5-[phenethyl-[(3R)-3-piperidyl]amino]quinazoline-8-carboxamide], for which the IC50 at P70S6K is 11 µM; at AKT, over 100 µM.
With `Cc1cccc(N2CCC(Nc3ccc(C(N)=O)c4ncncc34)CC2)c1` [Example 57, 5-((1-(m-tolyl)piperidin-4-yl)amino)quinazoline-8-carboxamide], the IC50 was 22 µM on P70S6K and over 100 µM at AKT.
